Data reported in article PMC5572722, “Dimerization in tailoring uptake efficacy of the HSV-1 derived membranotropic peptide gH625” (Scientific Reports, 2017).
Positions of bridges follow the written chain, without caps; N, C: chain ends. Residues, ends and D or L forms follow the SMILES beside them. Chains are numbered I, II in the order given. No end group written: not given here.

Legend:
[1] = Peptide aggregation, Thioflavin T (ThT) fluorescence; type: physicochemical; settings: ThT 25 μM, 0.1 mM DOPG/Chol 60/40 LUVs, 100 mM NaCl, 10 mM Tris–HCl pH 7.4, 25 °C
Method: Figure 4 Panel A reports the quenching of tryptophan by acrylamide. Stern-Volmer plots of acrylamide quenching of gH625, gH625-H7, gH625-G7 in buffer (closed symbols) and in LUVs composed of DOPG/Chol 60/40 (mol/mol) (open symbols). Peptide concentration is 4 μM. Panel B reports the […] as a function of the peptide/lipid ratio of gH625, gH625-H7, gH625-G7 in buffer (closed symbols) and in 0.1 mM LUVs composed of DOPG/Chol 60/40 (mol/mol) (open symbols).
The three peptides are not aggregated in buffer as evidenced by the fact that the fluorescence remained unaltered after the addition of the peptides (see closed symbols). On the contrary, they all caused a progressive aggregation in LUVs as the fluorescence change increased dramatically.
Peptide aggregation was monitored using ThioflavinT (ThT), which combines rapidly with aggregated peptides producing a new excitation maximum at 450 nm (slit width, 5 nm) and an enhanced emission at 482 nm (slit width, 5 nm)[43]. This experiment was conducted in LUVs (final phospholipid concentration of 0.1 mM) and buffer containing 25 μM ThT in 100 mM NaCl, 10 mM Tris–HCl, pH 7.4. Fluorescence was measured before and after the addition of peptides. In particular, we tested the following peptide concentrations 0.005, 0.01, 0.015, 0.02, 0.03, 0.04, 0.05 and 0.07 mM at 25 °C. Aggregation (A) was determined according to the following equation7 %A=(Ff−F0)/(Fmax−F0)×100 where Ff is the value of fluorescence after peptide addition, F0 the initial fluorescence in the absence of peptide and Fmax is the fluorescence maximum obtained immediately after peptide addition. Kinetic data were obtained at a concentration of 4 μM.

[2] = Circular dichroism: helix content and θ222/θ208 ratio; type: physicochemical; settings: CD, peptide 8 μM; for helix content in 20% TFE: room temperature, from MRE at 222 nm; for helix content in 20% TFE / ratio θ222/θ208 in TFE: 20% TFE; for ratio θ222/θ208 in TFE / ratio θ222/θ208 in lipids / ratio θ222/θ208 in buffer: <0.8 monomeric, >1.0 oligomeric state; for helix content in DOPG/Chol / ratio θ222/θ208 in lipids: DOPG/Chol 60/40 LUVs; for helix content in DOPG/Chol: P/L 0.05, from MRE at 222 nm; for ratio θ222/θ208 in lipids: P/L 0.05; for helix content in buffer: sodium phosphate 5 mM pH 7.4, room temperature, from MRE at 222 nm (Chakrabartty et al.)
From the text: The circular dichroism (CD) analysis was used to reveal changes of the secondary structure with respect to the parent peptide in different experimental conditions (Figure 7). […] The helix content is probably underscored because oligomerization processes are taking place in this condition. The CD spectra were also obtained in presence of DOPG/Chol.
Figure 7 Circular dichroism spectra of gH625, gH625-H7 and gH625-G7 in buffer (A), 20% TFE (B) and DOPG/Chol 60/40 (mol/mol) LUVs (C). Peptide concentration used is 8 μM in all conditions tested and the peptide/lipid ratio is 0.05 in condition C.
The ratio of the ellipticities at 222 and 208 nm can be utilized to distinguish between monomeric and oligomeric states of helices, [49]; when the ratio θ222/θ208 is lower than 0.8, the peptide is essentially in its monomeric state, and when the ratio exceeds the value of 1.0, it is in its oligomeric state. The data reveal that in presence of TFE and of lipids, gH625 adopts an α-helical conformation with the monomer/oligomer equilibrium shifted toward the oligomeric state with a ratio θ222/θ208 of approximately 0.9 in both conditions, while in buffer the ratio decreases to 0.5 indicating a monomeric state. […] (Figure 7B,C). We repeated the experiment after centrifugation to remove eventual precipitated peptides from solution, however, the aggregates were molecular in size, and centrifugation had no effect on the spectra. The same analysis were performed on gH625-H7. The peptide adopts an α-helical conformation also in buffer, with a ratio θ222/θ208 of approximately 0.7, 0.9 and 1.2 in buffer, TFE and lipids.
CD spectra were recorded in a 1.0 or 0.1 cm quartz cell at room temperature using a Jasco J-715 spectropolarimeter. The spectra are an average of 3 consecutive scans from 260 to 195 nm, recorded with a band width of 3 nm, a time constant of 16 s, and a scan rate of 10 nm/min. Spectra were recorded and corrected for the background contributions by substracting blank samples. Mean residue ellipticities (MRE) were calculated using the expression MRE = Obsd/(lcn), where Obsd is the ellipticity measured in millidegrees, l is the path length of the cell in cm, c is the peptide concentration in mol/l, and n is the number of amino acid residues in the peptide. The peptide concentration was 8 μM both in buffer (sodium phosphate 5 mM pH 7.4) and at different percentages of TFE. Peptide samples in DOPG/Chol (60/40 mol/mol) were prepared using the following protocol[32]: all peptides were first dissolved in TFE; immediately after preparation, the peptide solution was added to an equal volume of a chloroform/methanol solution containing the appropriate lipid concentration; solutions were dried with a nitrogen gas stream and lyophilized overnight; the dry samples were rehydrated with buffer to yield a final peptide concentration of 8 μM with a P/L ratio of 0.05 and extruded. The percentage of helix was calculated from measurements of their mean residue ellipticity at 222 nm[47]. We used [ϑ]222 values of 0 and −40.000(1–2.5/n) deg cm^2 dmol^−1 per amino acid residue for 0% and 100% helicity; n is the number of amino acid residues.

[3] = lipid 0.1 mM, 25 °C, outer NBD reduced with 100 mM dithionite, average of three experiments
Method: The extent of lipid mixing between only the inner monolayers of vesicles in solution, labelled with NBD and Rho, was determined adding an aqueous reducing agent (dithionite) which eliminated the NBD fluorescence from the vesicle membranes’ outer monolayer.
Figure 2 Inner monolayer in DOPC/Chol 60/40 (mol/mol) (A) and DOPG/Chol 60/40 (mol/mol) (B). […] Lipid concentration is 0.1 mM. Percentage of inner monolayer fusion as a function of the peptide/lipid ratio is reported and each trace represents an average of three independent experiments.
Membrane fusion was monitored by the fluorescence resonance energy transfer assay (FRET)[70] at 25 °C. Two populations of LUVs, one labelled with 0.6 mol% of NBD (donor) and Rho (acceptor) and one unlabelled were mixed and the variation in NBD fluorescence due to membrane fusion was determined. After the addition of aliquots of peptides the change in donor emission (excitation wavelength 465 nm, emission wavelength 530 nm) was monitored. […] The 100% of fusion was determined upon the addition of Triton X-100 (0.05% v/v). All results are an average of at least three experiments. A cut off filter at 515 nm was used.
The dithionite was removed through size exclusion chromatography, Sephadex G-50 DNA Grade, (GE Healthcare, Pharmacia, Uppsala, Sweden) with buffer containing 10 mM TRIS, 100 mM NaCl, and 1 mM EDTA, pH 7.4.

Row | Compound | peptide aggregation in LUVs [1] | helix content in 20% TFE [2] | ratio θ222/θ208 in TFE [2] | helix content in DOPG/Chol [2] [%] | ratio θ222/θ208 in lipids [2] | helix content in buffer [2] [%] | fusion of the inner monolayer, DOPC/Chol LUVs [3] | ratio θ222/θ208 in buffer [2] | fusion of the inner monolayer, DOPG/Chol LUVs [3]
1 | CC[C@H](C)[C@H](NC(=O)[C@H](CC(C)C)NC(=O)[C@H](C)NC(=O)[C@H](CC(N)=O)NC(=O)[C@H](Cc1ccc(O)cc1)NC(=O)[C@H](Cc1c[nH]cn1)NC(=O)[C@H](C)NC(=O)[C@H](Cc1c[nH]c2ccccc12)NC(=O)[C@H](CCCNC(=N)N)NC(=O)[C@@H](NC(=O)[C@H](CC(C)C)NC(=O)[C@@H](NC(=O)[C@H](CO)NC(=O)[C@H](C)NC(=O)[C@H](CC(C)C)NC(=O)CNC(=O)[C@@H](N)Cc1c[nH]cn1)[C@@H](C)O)[C@@H](C)O)C(=O)N[C@@H](CCCNC(=N)N)C(=O)N[C@@H](C)C(=O)N[C@@H](Cc1ccccc1)C(=O)NCC(=O)NCC(=O)NCC(=O)N[C@@H](CCCCN)C(=O)N[C@@H](CCCCN)C(=O)N[C@@H](CCCCN)C(=O)N[C@@H](CCCCN)C(N)=O [gH625-G7] (H-HGLASTLTRWAHYNALIRAFGGGKKKK-NH2) | oligomerize significantly | 36% | 0.7 | 55 | 1.0 | 7 | only a small fusion | – | –
2 | CC[C@H](C)[C@H](NC(=O)[C@H](CC(C)C)NC(=O)[C@H](C)NC(=O)[C@H](CC(N)=O)NC(=O)[C@H](Cc1ccc(O)cc1)NC(=O)[C@H](Cc1c[nH]cn1)NC(=O)[C@H](C)NC(=O)[C@H](Cc1c[nH]c2ccccc12)NC(=O)[C@H](CCCNC(=N)N)NC(=O)[C@@H](NC(=O)[C@H](CC(C)C)NC(=O)[C@@H](NC(=O)[C@H](CO)NC(=O)[C@H](C)NC(=O)[C@H](CC(C)C)NC(=O)CNC(=O)[C@@H](N)Cc1c[nH]cn1)[C@@H](C)O)[C@@H](C)O)C(=O)N[C@@H](CCCNC(=N)N)C(=O)N[C@@H](C)C(=O)N[C@@H](Cc1ccccc1)C(N)=O [gH625] (H-HGLASTLTRWAHYNALIRAF-NH2) | lower aggregation at low peptide/lipid ratio | 22% | approximately 0.9 | 37 | approximately 0.9 | 5 | only a small fusion | 0.5 | –
3 | I: HGLASTLTRWAHYNALIRAFGCGKKKK-NH2 / II: HGLASTLTRWAHYNALIRAFGCGKKKK-NH2 (disulfide I:22-II:22) [gH625-H7] | oligomerize significantly | approximately 20% | approximately 0.9 | – | ~1.2 | 8 | complete fusion | approximately 0.7 | complete fusion
